From patent US20260125400A1, “TYK2 DEGRADERS AND USES THEREOF” (Kymera Therapeutics, Inc., priority 2023, published 2026) come the findings set out here.

Some results are limits rather than exact numbers.

The test deals with T1, TYK2 (Homo sapiens, UniProt P29597).
T1 construct: Degradation of TYK2 in cells was quantitatively measured using Meso Scale Discovery (MSD) technology; endogenous in cells; host or cells: OCI-LY10
The test can be described thus: TYK2 MSD degradation in OCI-LY10 cells. To be noted: TYK2 degradation in OCI-LY10 cells, 4 to 24 hours incubation; for DC50: read-out: TYK2 MSD OCI-LY10 Rel-DC50. The class given is cell-based. The procedure:
Example 7. TYK2 MSD Degradation
Degradation of TYK2 in cells was quantitatively measured using Meso Scale Discovery (MSD) technology. OCI-LY10 cells were seeded in 96-well plates with a density of 0.4 million cells per well in 100 μl fresh media. Compounds were then added to the assay plates with a final top concentration of 1 to 10 μM in a 1:3 dilution series with total of 9 doses. The assay plates were then incubated for 4 to 24 hours at 37° C. under […]. The assay plates were then centrifuged for 5 minutes, and the cell pellets were treated with 100 μl/well RIPA lysis buffer (Boston Bioproducts, BP-115D) with protease and phosphatase inhibitors (Roche, 05892791001 and 04906837001). To prepare MSD assay plates (MSD, L15XA), the plates were coated with the capture antibody (Santa Cruz Biotechnology, SC-5271) in PBS, at 40 μl/well. The plates were then incubated overnight at 4° C., washed 3 times with 150 μl/well TBST buffer (Cell Signaling Technology, 9997S) and blocked with 150 μl/well blocking buffer (MSD, R93BA-4). Cell lysates were then added to MSD assay plates and the plates were incubated at room temperature for 1 hour. The plates were then washed 3 times with 150 μl/well TBST buffer and 25 μl/well primary detection antibody (Cell Signaling Technology, #9312). The assay plates were then incubated at room temperature for 1 hour, washed 3 times with 150 μl/well TBST buffer, and 25 μl/well secondary detection antibody, SULFO-TAG anti-rabbit antibody (MSD, R32AB-1) were added. The assay plates were then incubated at room temperature for 1 hour, washed 3 times with 150 μl/well TB ST buffer, and 150 μl/well MSD reading buffer (MSD, R92TC-2) were added. The plates were then analyzed by an MSD reader. The data was analyzed by GraphPad Prism and the dose dependent TYK2 degradation was fit using the four-parameter inhibitor vs. response nonlinear regression.
The letter codes for TYK2 DC50 include: A (<1 nM); B (i to <10 nM); C (10 to 100 nM); D (>100 nM); and E (not tested). The letter codes for TYK2 Dmax % include: A (>90%); B (90 to >75%); C (75 to 50%); D (<50%); and E (not tested).

T1 sequence (P29597 whole entry): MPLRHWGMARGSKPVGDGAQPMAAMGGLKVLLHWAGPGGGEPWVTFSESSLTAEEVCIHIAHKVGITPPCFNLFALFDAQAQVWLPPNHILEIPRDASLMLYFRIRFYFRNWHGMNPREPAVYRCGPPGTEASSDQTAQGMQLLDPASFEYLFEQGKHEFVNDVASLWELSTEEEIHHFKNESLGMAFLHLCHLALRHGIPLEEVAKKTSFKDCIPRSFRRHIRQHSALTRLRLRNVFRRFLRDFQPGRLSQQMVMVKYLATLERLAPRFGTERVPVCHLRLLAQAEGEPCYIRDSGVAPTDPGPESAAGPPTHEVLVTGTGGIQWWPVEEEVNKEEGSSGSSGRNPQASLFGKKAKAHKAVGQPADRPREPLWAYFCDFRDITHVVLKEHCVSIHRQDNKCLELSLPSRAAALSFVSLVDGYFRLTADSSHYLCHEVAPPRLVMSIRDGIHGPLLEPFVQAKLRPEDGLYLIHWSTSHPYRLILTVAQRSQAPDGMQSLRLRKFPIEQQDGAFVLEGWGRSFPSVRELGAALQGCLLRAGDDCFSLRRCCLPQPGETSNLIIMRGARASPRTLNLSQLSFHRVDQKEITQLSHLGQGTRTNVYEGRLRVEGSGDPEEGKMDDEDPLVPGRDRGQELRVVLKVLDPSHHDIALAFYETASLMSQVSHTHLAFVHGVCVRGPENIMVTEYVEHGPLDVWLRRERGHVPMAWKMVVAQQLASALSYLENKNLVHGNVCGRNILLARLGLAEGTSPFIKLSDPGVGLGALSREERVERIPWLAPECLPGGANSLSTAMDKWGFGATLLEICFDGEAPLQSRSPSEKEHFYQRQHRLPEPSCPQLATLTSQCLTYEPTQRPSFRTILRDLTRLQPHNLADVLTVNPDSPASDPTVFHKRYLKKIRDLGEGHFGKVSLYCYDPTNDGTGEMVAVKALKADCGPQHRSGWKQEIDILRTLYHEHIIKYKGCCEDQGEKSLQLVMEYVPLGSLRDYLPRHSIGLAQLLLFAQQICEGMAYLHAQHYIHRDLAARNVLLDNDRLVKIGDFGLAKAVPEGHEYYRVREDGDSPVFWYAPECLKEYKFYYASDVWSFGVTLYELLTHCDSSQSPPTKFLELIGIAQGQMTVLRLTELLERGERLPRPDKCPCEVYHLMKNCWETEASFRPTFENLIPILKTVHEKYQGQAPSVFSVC

By DC50 is commonly meant the midpoint of the concentration-degradation curve. For the compound `CNc1cc(N2CCc3c(CN4CCC5(CC4)CCN(C(=O)c4ccc(Cl)c(N6CCC(=O)NC6=O)c4)CC5)cccc32)nn2c(C(=O)NC3CC3)cnc12` [I-58], the “TYK2 MSD OCI-LY10 Dmax %” value is given as “D (D (<50%))” and the half-maximal degradation concentration (DC50) is > 100 nM.
Taken in the same sequence, the figures for `CNc1cc(N2CCc3c(C4CCCN(CC5CC6(C5)CN(c5ccc7c(c5)n(C)c(=O)n7C5CCC(=O)NC5=O)C6)C4)cccc32)nn2c(C(=O)NC3CC3)cnc12` (stereo not shown) [I-59] were “D (D (<50%))” and < 1 nM.
Take `CNc1cc(N2CCc3c(C4CCN(CC5CC6(CCN(C(=O)c7ccc(Cl)c(N8CCC(=O)NC8=O)c7)CC6)C5)CC4)cccc32)nn2c(C(=O)NC3CC3)cnc12` [I-60]: the “TYK2 MSD OCI-LY10 Dmax %” value was “C (C (75 to 50%))” and the DC50 was < 10 nM.
Taken in the same sequence, the figures for `CNc1cc(N2CCc3c(-c4ccc(CN5CCC(N6CCN(c7ccc8c(c7)n(C)c(=O)n8C7CCC(=O)NC7=O)CC6)C(F)(F)C5)cn4)cc(F)cc32)nn2c(C(=O)NC3CC3)cnc12` (stereo not shown) [I-61] were “B (B (90 to >75%))” and < 10 nM.
In the case of `CNc1cc(N2CCc3c(CN4CCC(N5CCC(N6CCN(c7ccc8c(c7)n(C)c(=O)n8C7CCC(=O)NC7=O)CC6)CC5)C(F)(F)C4)cccc32)nn2c(C(=O)NC3CC3)cnc12` (stereo not shown) [I-62], the “TYK2 MSD OCI-LY10 Dmax %” value was “B (B (90 to >75%))” and the 50% degradation concentration (DC50) was < 1 nM.
On the same counts, the results for `CNc1cc(N2CCc3c(-c4ccc(CN5CC6(CCN(C(=O)c7ccc(C)c(N8CCC(=O)NC8=O)c7)CC6)C5)cn4)cccc32)nn2c(C(=O)N[C@@H]3C[C@@H]3F)cnc12` [I-63] are “A (A (>90%))” and < 1 nM.
On the same counts, the results for `CNc1cc(N2CCc3c(-c4ccc(CN5CC6(CCN(C(=O)c7ccc(OC)c(N8CCC(=O)NC8=O)c7)CC6)C5)cn4)cccc32)nn2c(C(=O)N[C@@H]3C[C@@H]3F)cnc12` [I-64] are “A (A (>90%))” and < 1 nM.
As to `CNc1cc(N2CCc3c(-c4ccc(CN5CCC6(CC5)CCN(c5cc(Cl)cc(NC7CCC(=O)NC7=O)c5)CC6)cn4)cccc32)nn2c(C(=O)NC3CC3)cnc12` (stereo not shown) [I-65], the “TYK2 MSD OCI-LY10 Dmax %” value is given as “D (D (<50%))” and the DC50 was > 100 nM.
For `CNc1cc(N2CCc3c(-c4ccc(CN5CCC6(CC5)CCN(c5ccc(Cl)c(NC7CCC(=O)NC7=O)c5)CC6)cn4)cccc32)nn2c(C(=O)NC3CC3)cnc12` (stereo not shown) [I-66], the “TYK2 MSD OCI-LY10 Dmax %” value is on record as “D (D (<50%))” and the DC50 was > 100 nM.
On the same counts, the results for `CNc1cc(N2CCc3c(-c4ccc(CN5CC6(CCN(C(=O)c7ccc(Cl)c(N8CCC(=O)NC8=O)c7)CC6(F)F)C5)cn4)cccc32)nn2c(C(=O)N[C@@H]3C[C@@H]3F)cnc12` [I-67] are “A (A (>90%))” and < 1 nM.
In the case of `CNc1cc(N2CCc3c(-c4cc(CN5CCN(c6ccc7c(c6)n(C)c(=O)n7C6CCC(=O)NC6=O)CC5)ccn4)cccc32)nn2c(C(=O)NC3CC3)cnc12` (stereo not shown) [I-68], the “TYK2 MSD OCI-LY10 Dmax %” value is given as “B (B (90 to >75%))” and the DC50 was < 1 nM.
On the same counts, the results for `CNc1cc(N2CCc3c(-c4ccc(CN5CCC(N6CCN(c7ccc8c(c7F)n(C)c(=O)n8C7CCC(=O)NC7=O)CC6)C(F)(F)C5)cn4)cccc32)nn2c(C(=O)NC3CC3)cnc12` (stereo not shown) [I-69] are “B (B (90 to >75%))” and < 10 nM.
Taken in the same sequence, the figures for `CNc1cc(N2CCc3c(-c4cc(CN5CCN(c6ccc7c(c6F)n(C)c(=O)n7C6CCC(=O)NC6=O)CC5)ccn4)cccc32)nn2c(C(=O)NC3CC3)cnc12` (stereo not shown) [I-71] were “B (B (90 to >75%))” and < 1 nM.
On the same counts, the results for `CNc1cc(N2CCc3c(CN4CCC(N5CC(N6CCN(c7ccc8c(c7)n(C)c(=O)n8C7CCC(=O)NC7=O)CC6)C5)C(F)(F)C4)cccc32)nn2c(C(=O)N[C@@H]3C[C@@H]3F)cnc12` (stereo partly shown) [I-72] are “B (B (90 to >75%))” and < 1 nM.
As to `CNc1cc(N2CCc3c(-c4ccc(CN5CC6(CCN(C(=O)c7ccc(Cl)c(N8CCC(=O)NC8=O)c7)CC6)C5)cc4)cccc32)nn2c(C(=O)N[C@@H]3C[C@@H]3F)cnc12` [I-73], the “TYK2 MSD OCI-LY10 Dmax %” value is on record as “C (C (75 to 50%))” and the DC50 is < 10 nM.
On the same counts, the results for `CNc1cc(N2CCc3c(-c4ccc(CN5CCC6(CC5)CCN(c5ccc(N7CCC(=O)NC7=O)c(Cl)c5)CC6)cn4)cccc32)nn2c(C(=O)N[C@@H]3C[C@@H]3F)cnc12` [I-74] are “D (D (<50%))” and < 10 nM.
Taken in the same sequence, the figures for `CNc1cc(N2CCc3c(-c4ccc(OC5CCC6(CC5)CCN(C(=O)c5ccc(Cl)c(N7CCC(=O)NC7=O)c5)CC6)cn4)cccc32)nn2c(C(=O)N[C@@H]3C[C@@H]3F)cnc12` [I-75] were “C (C (75 to 50%))” and < 10 nM.
With `CNc1cc(N2CCc3c(-c4ccc(OC5CC6(CCN(C(=O)c7ccc(Cl)c(N8CCC(=O)NC8=O)c7)CC6)C5)cn4)cccc32)nn2c(C(=O)N[C@@H]3C[C@@H]3F)cnc12` [I-76], the “TYK2 MSD OCI-LY10 Dmax %” value was “B (B (90 to >75%))” and the DC50 was < 1 nM.
As to `CNc1cc(N2CCc3c(-c4ccc(CN5CCC6(CC5)CCN(c5ccc(C7CCC(=O)NC7=O)c(Cl)c5)CC6)cn4)cccc32)nn2c(C(=O)N[C@@H]3C[C@@H]3F)cnc12` (stereo partly shown) [I-77], the “TYK2 MSD OCI-LY10 Dmax %” value is “D (D (<50%))” and the 50% degradation concentration (DC50) was < 10 nM.
As for `CNc1cc(N2CCc3c(-c4cc(CN5CCN(C(=O)c6ccc(Cl)c(N7CCC(=O)NC7=O)c6)CC5)ccn4)cccc32)nn2c(C(=O)N[C@@H]3C[C@@H]3F)cnc12` [I-78], the “TYK2 MSD OCI-LY10 Dmax %” value was “D (D (<50%))” and the DC50 is < 10 nM.
For `CNc1cc(N2CCc3c(-c4cc(CN5CC6(CCN(C(=O)c7ccc(Cl)c(N8CCC(=O)NC8=O)c7)CC6)C5)ccn4)cccc32)nn2c(C(=O)N[C@@H]3C[C@@H]3F)cnc12` [I-79], the “TYK2 MSD OCI-LY10 Dmax %” value is “D (D (<50%))” and the DC50 is < 10 nM.
As for `CNc1cc(N2CCc3c(-c4cc(CN5CCN(c6ccc7c(c6F)n(C)c(=O)n7C6CCC(=O)NC6=O)CC5)ccn4)cccc32)nn2c(C(N)=O)cnc12` (stereo not shown) [I-81], the “TYK2 MSD OCI-LY10 Dmax %” value is “B (B (90 to >75%))” and the DC50 was < 1 nM.
Taken in the same sequence, the figures for `CNc1cc(N2CCc3c(-c4ccc(CN5CCC6(CC5)CCN(C(=O)c5ccc(Cl)c(N7CCC(=O)NC7=O)c5)C6)cn4)cccc32)nn2c(C(=O)N[C@H]3C[C@H]3F)cnc12` [I-82] were “B (B (90 to >75%))” and < 1 nM.
On the same counts, the results for `CNc1cc(N2CCc3c(-c4ccc(CN5CCC(N6CCN(c7ccc(C8CCC(=O)NC8=O)c(Cl)c7)CC6)C(F)(F)C5)cn4)cccc32)nn2c(C(=O)N[C@H]3C[C@H]3F)cnc12` (stereo partly shown) [I-83] are “D (D (<50%))” and < 10 nM.
As to `CNc1cc(N2CCc3c(CN4CCC(N5CCC(C6CCN(c7ccc8c(c7)n(C)c(=O)n8C7CCC(=O)NC7=O)CC6)CC5)C(F)(F)C4)cccc32)nn2c(C(=O)N[C@H]3C[C@H]3F)cnc12` (stereo partly shown) [I-84], the “TYK2 MSD OCI-LY10 Dmax %” value is recorded as “C (C (75 to 50%))” and the DC50 is < 10 nM.
Regarding `CNc1cc(N2CCc3c(-c4ccc(CN5CCC6(CCN(C(=O)c7ccc(Cl)c(N8CCC(=O)NC8=O)c7)CC6)C5)cn4)cccc32)nn2c(C(=O)N[C@H]3C[C@H]3F)cnc12` [I-85], the “TYK2 MSD OCI-LY10 Dmax %” value is listed as “B (B (90 to >75%))” and the 50% degradation concentration (DC50) was < 1 nM.
